The nature of series [1]: Maximum tolerated dose in mice after single administration. Also noted: species or system Mäusen. To be noted: mouse, in vivo, 7-day observation, read-out: maximal tolerierte Dosis. As to the method:
Die pharmakologische Wirksamkeit der Verbindungen der vorliegenden Erfindung ist begleitet von einer guten Verträglichkeit. So liegt die maximal tolerierte Dosis für das obengenannte 6,6-Dimethyl-4,5-dihydro-6H-(1,3-dioxolo)r3,41naphthor1,2-blpyran in Mäusen nach einmaliger p.o- und i.p.-Verabreichung und anschliessender 7-tägiger Beobachtungsdauer über 2500 mg/kg bzw. über 1250 mg/kg.

For series [2], the system named is Rauscher-Leukämie-Virus (RLV, ein RNS-Tumorvirus). Kind of series: Rauscher leukaemia virus infection in mice, survival time. It counts as in vivo, weibliche Balb/c-Mäuse. To be noted: 20 p.o. administrations of 125 mg/kg each, female Balb/c mice infected with Rauscher leukaemia virus; controls 31,7 Tage (p < 0,001 Cox-Test). From the text: Die Wirkung auf Virusinfektionen kann anhand von in vivo-Testanordnungen festgestellt werden. So besitzen Verbindungen der Formel I in Tierexperimenten bei gewissen neoplastischen Krankheiten, die durch RNS-Tumorviren hervorgerufen werden, oder bei denen RNS-Tumorviren nachweisbar sind, eine starke Wirksamkeit. Sie verlängern z.B. die mittlere Ueberlebensdauer von Mäusen nach Infektion mit Rauscher-Leukämie-Virus (RLV, ein RNS-Tumorvirus).
Bei den Versuchen mit Rauscher-Leukämie 4 Q (NIH) werden weibliche Balb/c-Mäuse (28 bis 34 Tage alt) mit 0,2 ml einer zehnfach mit Hanks Lösung verdünnten Virussuspension aus Milzmaterial von 4-6 Wochen vorher infizierten Mäusen infiziert. […] Die erste Verabreichung erfolgt 30 Minuten vor der Infektion, weitere Verabreichungen täglich einmal und fünfmal in der Woche während 4 Wochen. Als Kriterium für die Wirkung dient die Verlängerung der Ueberlebenszeit. Während bei den Kontrolltieren ab 30 Tagen nach der Infektion eine Leukämie mit leukämischen Blutzellen von über 50000/mm^3 gefunden werden können und die Tiere zu sterben beginnen, wird die Ueberlebenszeit der mit 125 mg/kg p.o. der Testsubstanz behandelten weiblichen Mäuse signifikant verlängert. […]

Each structure is given as a SMILES string. Where two headings read alike, the source gives them in different places. Bounds are passed on as bounds.

Consider `CC1(C)CCc2c3c(c4ccccc4c2O1)OCO3` [Beispiel 1, 6,6-Dimethyl-4,5-dihydro-6H-(1,3-dioxolo)f3,41-naphthof1,2-blpyran], for which the MTD at 168 h in series [1] (ip, single i.p. administration) was greater than 1250 mg/kg; in series [1] (po, single p.o. administration), greater than 2500 mg/kg. Further, the Ueberlebenszeit in series [2] was 60,9 Tage.

Source of the values: patent EP0184990A1, “Alkylidenedioxy compounds” (CIBA-GEIGY AG, priority 1984, dated 1986).
